# According to ChEMBL document CHEMBL1828558, “Discovery of (+)-N-(3-aminopropyl)-N-[1-(5-benzyl-3-methyl-4-oxo-[1,2]thiazolo[5,4-d]pyrimidin-6-yl)-2-methylpropyl]-4-methylbenzamide (AZD4877), a kinesin spindle protein inhibitor and potential anticancer agent” (J Med Chem, 2011):
# What was measured:
# [1] = system: Liver; experiment: Intrinsic clearance in Wistar rat hepatocytes at 2 uM; assay type: ADME, cell-based, Hepatocyte
# [2] = Clearance in Wistar rat at 6 mg/kg, iv administered as a single bolus dose; assay type: ADME, organism-based; design: dose 6 mg/kg, route intravenous; conditions: in vivo
# [3] = Initial plasma concentration in Wistar rat at 6 mg/kg, iv administered as a single bolus dose; assay type: ADME, organism-based; design: dose 6 mg/kg, route intravenous
# [4] = Half-life in rat at 1 and 5 mg/kg, iv administered as bolus dose; assay type: ADME, organism-based; design: dose 5 mg/kg, route intravenous; conditions: in vivo
# [5] = AUC (infinity) in Wistar rat at 6 mg/kg, iv administered as a single bolus dose; assay type: ADME, organism-based; design: time infinity, dose 6 mg/kg, route intravenous; conditions: plasma
# [6] = system: COLO 205; experiment: Anticancer activity against human COLO205 cells after 72 hrs by MTS/PMS assay; assay type: functional, cell-based; conditions: colo 205
# [7] = system: Rattus norvegicus; experiment: Hepatic blood flow in rat at 1 and 5 mg/kg, iv administered as bolus dose; assay type: ADME, organism-based, Liver; design: dose 5 mg/kg, route intravenous; conditions: in vivo
# [8] = Drug level in fiber in Hans Wistar rat hollow fiber model implanted with human COLO205 cells at 6 mg/kg, iv after 24 hrs; assay type: ADME, organism-based, COLO 205; design: dose 6 mg/kg, route intravenous; conditions: read-out: Drug uptake
# [9] = Binding affinity to L-type calcium channel in guinea pig ileum by radioligand displacement assay; assay type: tissue-based, Cavia porcellus
# [10] = Volume of distribution in rat at 1 and 5 mg/kg, iv administered as bolus dose; assay type: ADME, organism-based; design: dose 5 mg/kg, route intravenous; conditions: in vivo
# [11] = system: Liver microsomes; experiment: Intrinsic clearance in Wistar rat liver microsomes at 2 uM; assay type: ADME, Microsome
# [12] = Plasma protein binding in human; assay type: ADME, cell-free; conditions: read-out: PPB (converted)
# [13] = organism: Rattus norvegicus; experiment: Hepatic blood flow in Wistar rat; assay type: ADME, organism-based, Liver
# [14] = Volume of distribution at steady state in Wistar rat at 6 mg/kg, iv administered as a single bolus dose; assay type: ADME, organism-based; design: dose 6 mg/kg, route intravenous; conditions: in vivo, read-out: Vdss
# [15] = target: T1, Kinesin-1 heavy chain (Homo sapiens, UniProt P33176); experiment: Inhibition of human GST-conventional kinesin ATPase activity after 20 mins by malachite green assay
# T1 sequence (P33176 whole entry): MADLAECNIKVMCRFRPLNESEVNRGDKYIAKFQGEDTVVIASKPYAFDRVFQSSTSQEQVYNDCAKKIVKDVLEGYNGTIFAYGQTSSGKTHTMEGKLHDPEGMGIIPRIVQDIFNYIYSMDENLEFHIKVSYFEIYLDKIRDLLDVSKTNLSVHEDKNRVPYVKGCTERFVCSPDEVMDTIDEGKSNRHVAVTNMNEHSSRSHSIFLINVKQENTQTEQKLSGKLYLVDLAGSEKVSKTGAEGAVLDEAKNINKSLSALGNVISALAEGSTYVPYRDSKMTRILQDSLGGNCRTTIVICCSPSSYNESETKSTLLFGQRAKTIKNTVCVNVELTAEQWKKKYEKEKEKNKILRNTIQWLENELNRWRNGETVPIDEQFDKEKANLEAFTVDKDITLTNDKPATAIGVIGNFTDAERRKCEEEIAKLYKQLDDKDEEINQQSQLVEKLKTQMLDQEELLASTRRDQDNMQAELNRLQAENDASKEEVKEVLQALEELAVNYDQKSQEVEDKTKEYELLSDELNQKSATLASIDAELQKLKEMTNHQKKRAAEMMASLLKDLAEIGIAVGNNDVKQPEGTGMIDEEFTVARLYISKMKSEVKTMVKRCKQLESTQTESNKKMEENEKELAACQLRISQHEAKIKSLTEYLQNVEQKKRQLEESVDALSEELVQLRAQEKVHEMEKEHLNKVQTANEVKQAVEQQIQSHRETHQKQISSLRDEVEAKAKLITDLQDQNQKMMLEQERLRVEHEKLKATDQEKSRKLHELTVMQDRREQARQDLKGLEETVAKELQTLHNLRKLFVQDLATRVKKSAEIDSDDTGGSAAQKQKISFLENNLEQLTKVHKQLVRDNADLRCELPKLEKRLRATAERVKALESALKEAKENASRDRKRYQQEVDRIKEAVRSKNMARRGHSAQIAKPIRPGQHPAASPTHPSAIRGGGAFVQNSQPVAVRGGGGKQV
# [16] = target: Cytochrome P450 2D6 (Homo sapiens, UniProt P10635); experiment: Inhibition of human recombinant CYP2D6; assay type: ADME
# [17] = Clearance in nude mouse; assay type: ADME, organism-based; conditions: in vivo
# [18] = Plasma protein binding in Wistar rat; assay type: ADME, cell-free; conditions: read-out: PPB (converted)
# [19] = target: T2, Cytochrome P450 1A2 (Homo sapiens, UniProt P05177); experiment: Inhibition of human recombinant CYP1A2; assay type: ADME
# T2 sequence (P05177 whole entry): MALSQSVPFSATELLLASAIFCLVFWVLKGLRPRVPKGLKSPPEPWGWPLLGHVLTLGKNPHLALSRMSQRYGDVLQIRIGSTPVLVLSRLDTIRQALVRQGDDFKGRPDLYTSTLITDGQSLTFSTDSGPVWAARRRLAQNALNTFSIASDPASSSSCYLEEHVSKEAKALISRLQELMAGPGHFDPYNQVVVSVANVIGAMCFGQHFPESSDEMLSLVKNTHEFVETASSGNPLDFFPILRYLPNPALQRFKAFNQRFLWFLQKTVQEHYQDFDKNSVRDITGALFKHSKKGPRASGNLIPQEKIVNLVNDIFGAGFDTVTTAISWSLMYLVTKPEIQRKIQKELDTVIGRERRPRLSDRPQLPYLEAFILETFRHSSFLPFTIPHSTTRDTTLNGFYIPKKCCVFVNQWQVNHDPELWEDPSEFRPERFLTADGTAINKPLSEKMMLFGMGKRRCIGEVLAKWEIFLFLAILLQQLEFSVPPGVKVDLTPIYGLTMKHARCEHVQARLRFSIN
# [20] = Half-life in Wistar rat at 6 mg/kg, iv administered as a single bolus dose; assay type: ADME, organism-based; design: dose 6 mg/kg, route intravenous; conditions: in vivo
# Chain of Cytochrome P450 2D6 (P10635 whole entry): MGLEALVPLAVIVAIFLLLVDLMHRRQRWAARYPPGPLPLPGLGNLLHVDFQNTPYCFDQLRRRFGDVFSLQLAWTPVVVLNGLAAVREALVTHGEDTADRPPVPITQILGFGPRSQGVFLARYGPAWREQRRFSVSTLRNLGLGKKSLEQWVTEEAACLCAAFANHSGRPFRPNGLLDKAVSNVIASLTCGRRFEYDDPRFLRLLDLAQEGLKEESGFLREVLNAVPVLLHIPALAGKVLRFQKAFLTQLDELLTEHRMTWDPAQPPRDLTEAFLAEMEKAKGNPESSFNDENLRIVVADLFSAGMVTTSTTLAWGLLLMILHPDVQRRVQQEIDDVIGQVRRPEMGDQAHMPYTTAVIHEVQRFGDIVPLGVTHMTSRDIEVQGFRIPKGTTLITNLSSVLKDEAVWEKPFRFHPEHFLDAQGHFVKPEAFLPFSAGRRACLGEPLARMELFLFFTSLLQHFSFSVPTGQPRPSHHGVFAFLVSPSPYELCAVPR
smiles,measurement,setting,value
"Cc1ccc(C(=O)N(CCCN)C(c2nc3snc(C)c3c(=O)n2Cc2ccccc2)C(C)C)cc1 (single isomer, unassigned; (+)) [AZD-4877]",CL,[1],4 µL/min
same,clearance,[2],36 mL/min/kg
same,C0,[3],1080 ng/mL
same,half-life,[4],3.5 h
same,AUC(0-inf),[5],2840 ng·h/mL
same,IC50,[6],3 nM
same,QH,[7],50%
same,concentration at 24 h,[8],30.7 ng/mL
same,IC50,[9],2700 nM
same,Vd,[10],10 L/kg
same,clearance,[11],< 10 µL/min/mg
same,fraction unbound,[12],0.046
same,QH,[13],52%
same,Vd,[14],10 L/kg
same,IC50,[15],> 100000 nM
same,IC50,[16],> 10000 nM
same,clearance,[17],17 mL/min/kg
same,fraction unbound,[18],0.044
same,IC50,[19],> 10000 nM
same,half-life,[20],3.5 h
